Measured values reported in patent US20230295118A1 (EnhancedBio Inc., priority 2022, published 2023).

Assays:
Format in all cases: cell-based
[1] = tested on: mantle cell lymphoma cell (Mino or JeKo-1); assay: Antiproliferative effect, MTS cell viability assay; conditions: 72 h, mantle cell lymphoma cell (Mino or JeKo-1), MTS assay, read-out: IC50 (anti-proliferation)
Outline: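 MTS read-out (formazan absorbance at 490 nm) after 72 h exposure of Mino cells to 0–1 μM compound (0.0001, 0.001, 0.01, 0.1, 1 μM). Palbociclib and abemaciclib served as positive controls.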

[2] = biological target: T1, CDK4 (Homo sapiens, UniProt P11802); assay: CDK4 degradation (DC50, Dmax)
T1 construct: endogenous in cells

[3] = biological target: T2, CDK6 (Homo sapiens, UniProt Q00534); assay: CDK6 degradation (DC50, Dmax)
T2 construct: endogenous in cells
T2 sequence (Q00534 whole entry): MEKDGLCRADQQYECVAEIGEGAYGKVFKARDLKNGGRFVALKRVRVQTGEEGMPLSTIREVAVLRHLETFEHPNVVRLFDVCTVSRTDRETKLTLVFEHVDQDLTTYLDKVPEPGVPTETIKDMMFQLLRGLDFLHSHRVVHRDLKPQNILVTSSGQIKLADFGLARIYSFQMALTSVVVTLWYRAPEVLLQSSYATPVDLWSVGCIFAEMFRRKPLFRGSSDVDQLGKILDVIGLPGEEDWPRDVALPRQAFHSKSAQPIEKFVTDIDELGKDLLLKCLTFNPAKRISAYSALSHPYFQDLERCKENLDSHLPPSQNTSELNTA

T1 sequence (P11802 whole entry): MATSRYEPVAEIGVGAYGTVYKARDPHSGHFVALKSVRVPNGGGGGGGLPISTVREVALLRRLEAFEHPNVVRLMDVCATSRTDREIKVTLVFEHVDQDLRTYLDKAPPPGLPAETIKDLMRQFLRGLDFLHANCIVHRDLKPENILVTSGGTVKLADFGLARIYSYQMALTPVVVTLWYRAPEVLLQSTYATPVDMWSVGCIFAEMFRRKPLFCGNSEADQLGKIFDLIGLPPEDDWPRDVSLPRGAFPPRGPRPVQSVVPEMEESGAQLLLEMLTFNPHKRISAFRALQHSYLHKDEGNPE

SMILES | IC50 [1] | DC50 [2] | Dmax [2] | DC50 [3] | Dmax [3]
Cc1nc2c(F)cc(-c3nc(Nc4ccc(CN5CCN(C(=O)C6CN(c7ccc(C(=O)NC8CCC(=O)NC8=O)cc7)C6)CC5)cn4)ncc3F)cc2n1C(C)C (centres unmarked) [Compound 137, N-(2,6-dioxopiperidin-3-yl)-4-(3-(4-((6-((5-fluoro-4-(4-fluoro-1-isopropyl-2-methyl-1H-benzo[d]imidazol-6-yl)pyrimidin-2-yl)amino)pyridin-3-yl)methyl)piperazine-1-carbonyl)azetidin-1-yl)benzamide] | 50 to 200 nM | 50 to 200 nM | > 60% | 50 to 200 nM | > 60%
Cc1nc2c(F)cc(-c3nc(Nc4ccc(CC5CCN(CC6CN(c7ccc(C(=O)NC8CCC(=O)NC8=O)cc7)C6)CC5)cn4)ncc3F)cc2n1C(C)C (centres unmarked) [Compound 141, N-(2,6-dioxopiperidin-3-yl)-4-(3-((4-((6-{(5-fluoro-4-(4-fluoro-1-isopropyl-2-methyl-1H-benzo[d]imidazol-6-yl)pyrimidin-2-yl)amino)pyridin-3-yl)methyl)piperidin-1-yl)methyl)azetidin-1-yl)benzamide] | < 50 nM | 50 to 200 nM | > 80% | 50 to 200 nM | > 80%
Cc1nc2c(F)cc(-c3nc(Nc4ccc(CC5CCN(C(=O)C6CN(c7ccc8c(c7)C(=O)N(C7CCC(=O)NC7=O)C8=O)C6)CC5)cn4)ncc3F)cc2n1C(C)C (centres unmarked) [Compound 143, 2-(2,6-dioxopiperidin-3-yl)-5-(3-(4-((6-((5-fluoro-4-(4-fluoro-1-isopropyl-2-methyl-1H-benzo[d]imidazol-6-yl)pyrimidin-2-yl)amino)pyridin-3-yl)methyl)piperidine-1-carbonyl)azetidin-1-yl)isoindoline-1,3-dione] | < 50 nM | 50 to 200 nM | > 80% | 50 to 200 nM | > 60%
Cc1nc2c(F)cc(-c3nc(Nc4ccc(CC5CCN(C(=O)C6CN(c7ccc(C(=O)NC8CCC(=O)NC8=O)cc7)C6)CC5)cn4)ncc3F)cc2n1C(C)C (centres unmarked) [Compound 145, N-(2,6-dioxopiperidin-3-yl)-4-(3-(4-((6-((5-fluoro-4-(4-fluoro-1-isopropyl-2-methyl-1H-benzo[d]imidazol-6-yl)pyrimidin-2-yl)amino)pyridin-3-yl)methyl)piperidine-1-carbonyl)azetidin-1-yl)benzamide] | < 50 nM | 50 to 200 nM | > 60% | 50 to 200 nM | > 60%
Cc1nc2c(F)cc(-c3nc(Nc4ccc(CN5CCN(C6CN(c7ccc8c(c7)C(=O)N(C7CCC(=O)NC7=O)C8=O)C6)CC5)cn4)ncc3F)cc2n1C(C)C (centres unmarked) [Compound 147, 2-(2,6-dioxopiperidin-3-yl)-5-(3-(4-((6-((5-fluoro-4-(4-fluoro-1-isopropyl-2-methyl-1H-benzo[d]imidazol-6-yl)pyrimidin-2-yl)amino)pyridin-3-yl)methyl)piperazin-1-yl)azetidin-1-yl)isoindoline-1,3-dione] | 50 to 200 nM | < 50 nM | > 60% | 50 to 200 nM | > 60%
Cc1nc2c(F)cc(-c3nc(Nc4ccc(CC5CCN(C6CN(c7ccc8c(c7)C(=O)N(C7CCC(=O)NC7=O)C8=O)C6)CC5)cn4)ncc3F)cc2n1C(C)C (centres unmarked) [Compound 148, 2-(2,6-dioxopiperidin-3-yl)-5-(3-(4-((6-((5-fluoro-4-(4-fluoro-1-isopropyl-2-methyl-1H-benzo[d]imidazol-6-yl)pyrimidin-2-yl)amino)pyridin-3-yl)methyl)piperidin-1-yl)azetidin-1-yl)isoindoline-1,3-dione] | 50 to 200 nM | < 50 nM | > 60% | 50 to 200 nM | > 60%
Cc1nc2c(F)cc(-c3nc(Nc4ccc(CN5CCN(CC6CCN(c7ccc8c(c7)C(=O)N(C7CCC(=O)NC7=O)C8=O)CC6)CC5)cn4)ncc3F)cc2n1C(C)C (centres unmarked) [Compound 149, 2-(2,6-dioxopiperidin-3-yl)-5-(4-((4-((6-((5-fluoro-4-(4-fluoro-1-isopropyl-2-methyl-1H-benzo[d]imidazol-6-yl)pyrimidin-2-yl)amino)pyridin-3-yl)methyl)piperazin-1-yl)methyl)piperidin-1-yl)isoindoline-1,3-dione] | < 50 nM | < 50 nM | > 80% | < 50 nM | > 80%
Cc1nc2c(F)cc(-c3nc(Nc4ccc(CN5CCN(C6CCN(c7ccc(C(=O)NC8CCC(=O)NC8=O)cc7)CC6)CC5)cn4)ncc3F)cc2n1C(C)C (centres unmarked) [Compound 150, N-(2,6-dioxopiperidin-3-yl)-4-(4-(4-((6-((5-fluoro-4-(4-fluoro-1-isopropyl-2-methyl-1H-benzo[d]imidazol-6-yl)pyrimidin-2-yl)amino)pyridin-3-yl)methyl)piperazin-1-yl)piperidin-1-yl)benzamide] | < 50 nM | < 50 nM | > 80% | < 50 nM | > 80%
Cc1nc2c(F)cc(-c3nc(Nc4ccc(CN5CCN(CC6CCN(c7ccc(C(=O)NC8CCC(=O)NC8=O)cc7)CC6)CC5)cn4)ncc3F)cc2n1C(C)C (centres unmarked) [Compound 151, N-(2,6-dioxopiperidin-3-yl)-4-(4-((4-((6-((5-fluoro-4-(4-fluoro-1-isopropyl-2-methyl-1H-benzo[d]imidazol-6-yl)pyrimidin-2-yl)amino)pyridin-3-yl)methyl)piperazin-1-yl)methyl)piperidin-1-yl)benzamide] | < 50 nM | 50 to 200 nM | > 80% | 50 to 200 nM | > 60%

Results, then the molecule that gave them:

IC50 [1] | DC50 [2] | Dmax [2] | DC50 [3] | Dmax [3] | SMILES
< 50 nM | 50 to 200 nM | > 80% | 50 to 200 nM | > 80% | Cc1nc2c(F)cc(-c3nc(Nc4ccc(CN5CCN(C(=O)C6CN(c7ccc8c(c7)CN(C7CCC(=O)NC7=O)C8=O)C6)CC5)cn4)ncc3F)cc2n1C(C)C (centres unmarked) [Compound 136, 3-(5-(3-(4-((6-((5-fluoro-4-(4-fluoro-1-isopropyl-2-methyl-1H-benzo[d]imidazol-6-yl)pyrimidin-2-yl)amino)pyridin-3-yl)methyl)piperazine-1-carbonyl)azetidin-1-yl)-1-oxoisoindolin-2-yl) piperidine-2,6-dione]
50 to 200 nM | 50 to 200 nM | > 60% | 50 to 200 nM | > 60% | Cc1nc2c(F)cc(-c3nc(Nc4ccc(CN5CCN(C(=O)C6CN(c7ccc(NC8CCC(=O)NC8=O)cc7)C6)CC5)cn4)ncc3F)cc2n1C(C)C (centres unmarked) [Compound 138, 3-((4-(3-(4-((6-((5-fluoro-4-(4-fluoro-1-isopropyl-2-methyl-1H-benzo[d]imidazol-6-yl)pyrimidin-2-yl)amino)pyridin-3-yl)methyl)piperazine-1-carbonyl)azetidin-1-yl)phenyl)amino) piperidine-2,6-dione]
< 50 nM | < 50 nM | > 80% | < 50 nM | > 80% | Cc1nc2c(F)cc(-c3nc(Nc4ccc(CC5CCN(CC6CN(c7ccc8c(c7)C(=O)N(C7CCC(=O)NC7=O)C8=O)C6)CC5)cn4)ncc3F)cc2n1C(C)C (centres unmarked) [Compound 139, 2-(2,6-dioxopiperidin-3-yl)-5-(3-((4-((6-((5-fluoro-4-(4-fluoro-1-isopropyl-2-methyl-1H-benzo[d]imidazol-6-yl)pyrimidin-2-yl)amino)pyridin-3-yl)methyl)piperidin-1-yl)methyl)azetidin-1-yl)isoindoline-1,3-dione]
< 50 nM | < 50 nM | > 80% | < 50 nM | > 80% | Cc1nc2c(F)cc(-c3nc(Nc4ccc(CC5CCN(CC6CN(c7ccc8c(c7)CN(C7CCC(=O)NC7=O)C8=O)C6)CC5)cn4)ncc3F)cc2n1C(C)C (centres unmarked) [Compound 140, 3-(5-(3-((4-((6-((5-fluoro-4-(4-fluoro-1-isopropyl-2-methyl-1H-benzo[d]imidazol-6-yl)pyrimidin-2-yl)amino)pyridin-3-yl)methyl)piperidin-1-yl)methyl)azetidin-1-yl)-1-oxoisoindolin-2-yl)piperidine-2,6-dione]
< 50 nM | 50 to 200 nM | > 80% | 50 to 200 nM | > 80% | Cc1nc2c(F)cc(-c3nc(Nc4ccc(CC5CCN(CC6CN(c7ccc(NC8CCC(=O)NC8=O)cc7)C6)CC5)cn4)ncc3F)cc2n1C(C)C (centres unmarked) [Compound 142, 3-((4-(3-((4-((6-((5-fluoro-4-(4-fluoro-1-isopropyl-2-methyl-1H-benzo[d]imidazol-6-yl)pyrimidin-2-yl)amino)pyridin-3-yl)methyl)piperidin-1-yl)methyl)azetidin-1-yl)phenyl)amino) piperidine-2,6-dione]
< 50 nM | 50 to 200 nM | > 80% | 50 to 200 nM | > 80% | Cc1nc2c(F)cc(-c3nc(Nc4ccc(CC5CCN(C(=O)C6CN(c7ccc8c(c7)CN(C7CCC(=O)NC7=O)C8=O)C6)CC5)cn4)ncc3F)cc2n1C(C)C (centres unmarked) [Compound 144, 3-(5-(3-(4-((6-((5-fluoro-4-(4-fluoro-1-isopropyl-2-methyl-1H-benzo[d]imidazol-6-yl)pyrimidin-2-yl)amino)pyridin-3-yl)methyl)piperidine-1-carbonyl)azetidin-1-yl)-1-oxoisoindolin-2-yl) piperidine-2,6-dione]
50 to 200 nM | 50 to 200 nM | > 50% | 50 to 200 nM | > 60% | Cc1nc2c(F)cc(-c3nc(Nc4ccc(CC5CCN(C(=O)C6CN(c7ccc(NC8CCC(=O)NC8=O)cc7)C6)CC5)cn4)ncc3F)cc2n1C(C)C (centres unmarked) [Compound 146, 3-((4-(3-(4-((6-((5-fluoro-4-(4-fluoro-1-isopropyl-2-methyl-1H-benzo[d]imidazol-6-yl)pyrimidin-2-yl)amino)pyridin-3-yl)methyl)piperidine-1-carbonyl)azetidin-1-yl)phenyl)amino) piperidine-2,6-dione]
